Data reported in ChEMBL document CHEMBL1133990, “8-Amido-Bearing pseudomycin B (PSB) analogue: novel antifungal agents” (2001).
≈ marks a conversion by molar mass, not a printed value.

Tests used:
Aspergillus fumigatus = test: Concentration required to inhibit 90-100% of visible fungal growth in Aspergillus fumigatus (WM1) tested in vitro; format: functional
Cryptococcus neoformans = test: Concentration required to inhibit 90-100% of visible fungal growth in (M1 106) tested in vitro; format: functional
Candida albicans = test: Concentration required to inhibit 90-100% of visible fungal growth in Candida albicans (A26) tested in vitro; format: functional
Mus musculus [1] = test: Effective dose required to cure 50% of fungal infection in mice administered intraperitoneally tested in vivo; format: functional
Mus musculus [2] = test: Ability to induce tail vein irritation in mice administered intravenously determined by tail vein assay; Activity- clean; format: functional, organism-based
Mus musculus [3] = test: Ability to induce tail vein irritation in mice administered intravenously determined by tail vein assay; Activity- Positive; format: functional, organism-based

SMILES	MIC (Aspergillus fumigatus) [µg/mL]	MIC (Cryptococcus neoformans) [µg/mL]	MIC (Candida albicans) [µg/mL]	ED50 (Mus musculus [1]) [mg/kg]	Activity (Mus musculus [2])	Activity (Mus musculus [3])
C/C=C1/NC(=O)[C@H]([C@H](C)O)NC(=O)[C@H](CCN)NC(=O)[C@H](CCCCN)NC(=O)[C@H](CC(=O)O)NC(=O)[C@@H](CCN)NC(=O)[C@@H](NC(=O)C[C@H](O)CCCCCCCCCCC)COC(=O)[C@H]([C@H](O)CCl)NC(=O)[C@H]([C@H](O)C(=O)NCC(=O)OC)NC1=O	> 20	0.08 (≈ 0.0626 µM)	2.5 (≈ 1.95 µM)	> 20	Activity- clean	–
C/C=C1/NC(=O)[C@H]([C@H](C)O)NC(=O)[C@H](CCN)NC(=O)[C@H](CCCCN)NC(=O)[C@H](CC(=O)O)NC(=O)[C@@H](CCN)NC(=O)[C@@H](NC(=O)C[C@H](O)CCCCCCCCCCC)COC(=O)[C@H]([C@H](O)CCl)NC(=O)[C@H]([C@H](O)C(=O)NCCO)NC1=O	> 20	0.625 (≈ 0.5 µM)	5 (≈ 4 µM)	–	Activity- clean	–
C/C=C1/NC(=O)[C@H]([C@H](C)O)NC(=O)[C@H](CCN)NC(=O)[C@H](CCCCN)NC(=O)[C@H](CC(=O)O)NC(=O)[C@@H](CCN)NC(=O)[C@@H](NC(=O)C[C@H](O)CCCCCCCCCCC)COC(=O)[C@H]([C@H](O)CCl)NC(=O)[C@H]([C@H](O)C(=O)NCCN(C)C)NC1=O	> 20	1.25 (≈ 0.978 µM)	5 (≈ 3.91 µM)	> 20	Activity- clean	–
C/C=C1/NC(=O)[C@H]([C@H](C)O)NC(=O)[C@H](CCN)NC(=O)[C@H](CCCCN)NC(=O)[C@H](CC(=O)O)NC(=O)[C@@H](CCN)NC(=O)[C@@H](NC(=O)C[C@H](O)CCCCCCCCCCC)COC(=O)[C@H]([C@H](O)CCl)NC(=O)[C@H]([C@H](O)C(=O)O)NC1=O	> 20	0.078 (≈ 0.0646 µM)	0.625 (≈ 0.517 µM)	–	–	Activity- Positive
C/C=C1\NC(=O)[C@H]([C@H](C)O)NC(=O)[C@H](CCN)NC(=O)[C@H](CCCCN)NC(=O)[C@H](CC(=O)O)NC(=O)[C@@H](CCN)NC(=O)[C@@H](NC(=O)C[C@H](O)CCCCCCCCCCC)COC(=O)[C@H]([C@H](O)CCl)NC(=O)[C@H]([C@H](O)C(=O)NCCC)NC1=O	> 20	5 (≈ 4 µM)	20 (≈ 16 µM)	14	Activity- clean	–
C/C=C1/NC(=O)[C@H]([C@H](C)O)NC(=O)[C@H](CCN)NC(=O)[C@H](CCCCN)NC(=O)[C@H](CC(=O)O)NC(=O)[C@@H](CCN)NC(=O)[C@@H](NC(=O)C[C@H](O)CCCCCCCCCCC)COC(=O)[C@H]([C@H](O)CCl)NC(=O)[C@H]([C@H](O)C(N)=O)NC1=O	> 20	< 1	0.312 (≈ 0.259 µM)	> 20	Activity- clean	–
C/C=C1/NC(=O)[C@H]([C@H](C)O)NC(=O)[C@H](CCN)NC(=O)[C@H](CCCCN)NC(=O)[C@H](CC(=O)O)NC(=O)[C@@H](CCN)NC(=O)[C@@H](NC(=O)C[C@H](O)CCCCCCCCCCC)COC(=O)[C@H]([C@H](O)CCl)NC(=O)[C@H]([C@H](O)C(=O)NC)NC1=O	> 20	0.156 (≈ 0.128 µM)	1.25 (≈ 1.02 µM)	> 20	Activity- clean	–
C/C=C1/NC(=O)[C@H]([C@@H](C)O)NC(=O)[C@H](CCN)NC(=O)[C@H](CCCCN)NC(=O)[C@H](CC(=O)O)NC(=O)[C@@H](CCN)NC(=O)[C@@H](NC(=O)C[C@H](O)CCCCCCCCCCC)COC(=O)[C@H]([C@H](O)CCl)NC(=O)[C@H]([C@H](O)C(=O)NCC)NC1=O	> 20	1.25 (≈ 1.01 µM)	10 (≈ 8.1 µM)	–	–	–

Second part, led by results:

MIC (Aspergillus fumigatus) [µg/mL]	MIC (Cryptococcus neoformans) [µg/mL]	MIC (Candida albicans) [µg/mL]	SMILES	ED50 (Mus musculus [1]) [mg/kg]	Activity (Mus musculus [2])	Activity (Mus musculus [3])
> 20	1.25 (≈ 0.968 µM)	20 (≈ 15.5 µM)	C/C=C1/NC(=O)[C@H]([C@@H](C)O)NC(=O)[C@H](CCN)NC(=O)[C@H](CCCCN)NC(=O)[C@H](CC(=O)O)NC(=O)[C@@H](CCN)NC(=O)[C@@H](NC(=O)C[C@H](O)CCCCCCCCCCC)COC(=O)[C@H]([C@H](O)CCl)NC(=O)[C@H]([C@H](O)C(=O)NCCCN(C)C)NC1=O	–	–	–
> 20	1.25 (≈ 0.913 µM)	10 (≈ 7.3 µM)	C/C=C1\NC(=O)[C@H]([C@H](C)O)NC(=O)[C@H](CCN)NC(=O)[C@H](CCCCN)NC(=O)[C@H](CC(=O)O)NC(=O)[C@@H](CCN)NC(=O)[C@@H](NC(=O)C[C@H](O)CCCCCCCCCCC)COC(=O)[C@H]([C@H](O)CCl)NC(=O)[C@H]([C@H](O)C(=O)NC(Cc2ccccc2)C(=O)OC)NC1=O (some centres undefined)	> 20	Activity- clean	–
> 20	0.312 (≈ 0.25 µM)	5 (≈ 4.01 µM)	C/C=C1/NC(=O)[C@H]([C@H](C)O)NC(=O)[C@H](CCN)NC(=O)[C@H](CCCCN)NC(=O)[C@H](CC(=O)O)NC(=O)[C@@H](CCN)NC(=O)[C@@H](NC(=O)C[C@H](O)CCCCCCCCCCC)COC(=O)[C@H]([C@H](O)CCl)NC(=O)[C@H]([C@H](O)C(=O)NC2CC2)NC1=O	> 20	Activity- clean	–
> 20	1.25 (≈ 0.991 µM)	5 (≈ 3.97 µM)	C/C=C1/NC(=O)[C@H]([C@H](C)O)NC(=O)[C@H](CCN)NC(=O)[C@H](CCCCN)NC(=O)[C@H](CC(=O)O)NC(=O)[C@@H](CCN)NC(=O)[C@@H](NC(=O)C[C@H](O)CCCCCCCCCCC)COC(=O)[C@H]([C@H](O)CCl)NC(=O)[C@H]([C@H](O)C(=O)NC2CCC2)NC1=O	> 20	Activity- clean	–
> 20	1.25 (≈ 0.99 µM)	20 (≈ 15.8 µM)	C/C=C1/NC(=O)[C@H]([C@H](C)O)NC(=O)[C@H](CCN)NC(=O)[C@H](CCCCN)NC(=O)[C@H](CC(=O)O)NC(=O)[C@@H](CCN)NC(=O)[C@@H](NC(=O)C[C@H](O)CCCCCCCCCCC)COC(=O)[C@H]([C@H](O)CCl)NC(=O)[C@H]([C@H](O)C(=O)NCCCC)NC1=O	> 20	Activity- clean	–
